In ChEMBL document CHEMBL1141059, “3-(2-Aminoethyl)pyridine analogs as alpha4beta2 nicotinic cholinergic receptor ligands” (Bioorg Med Chem Lett, 2005):

Molecular target: Neuronal acetylcholine receptor; alpha4/beta2 (Rattus norvegicus, UniProt P09483+P12390)
Experiment: Binding affinity for rat brain Nicotinic acetylcholine receptor alpha4-beta2 using [3H]S-(-)-nicotine

Neuronal acetylcholine receptor; alpha4/beta2, sequence (P09483 whole entry): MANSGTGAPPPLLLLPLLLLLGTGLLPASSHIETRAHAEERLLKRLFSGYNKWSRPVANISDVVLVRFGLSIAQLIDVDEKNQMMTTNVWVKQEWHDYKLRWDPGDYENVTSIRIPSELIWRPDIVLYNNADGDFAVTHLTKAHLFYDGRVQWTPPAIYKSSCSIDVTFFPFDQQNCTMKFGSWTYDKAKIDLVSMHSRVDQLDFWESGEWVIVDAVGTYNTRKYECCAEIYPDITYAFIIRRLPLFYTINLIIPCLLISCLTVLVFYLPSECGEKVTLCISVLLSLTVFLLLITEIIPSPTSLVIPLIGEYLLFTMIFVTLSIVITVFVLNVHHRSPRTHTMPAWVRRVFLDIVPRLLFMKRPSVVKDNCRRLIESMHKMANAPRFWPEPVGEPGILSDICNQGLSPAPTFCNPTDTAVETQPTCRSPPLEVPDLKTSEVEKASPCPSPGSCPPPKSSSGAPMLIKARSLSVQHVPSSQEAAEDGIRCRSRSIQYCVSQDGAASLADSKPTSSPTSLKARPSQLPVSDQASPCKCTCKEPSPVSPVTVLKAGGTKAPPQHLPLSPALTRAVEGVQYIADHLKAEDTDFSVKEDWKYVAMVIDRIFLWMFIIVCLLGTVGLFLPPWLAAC
Neuronal acetylcholine receptor; alpha4/beta2, sequence (P12390 whole entry): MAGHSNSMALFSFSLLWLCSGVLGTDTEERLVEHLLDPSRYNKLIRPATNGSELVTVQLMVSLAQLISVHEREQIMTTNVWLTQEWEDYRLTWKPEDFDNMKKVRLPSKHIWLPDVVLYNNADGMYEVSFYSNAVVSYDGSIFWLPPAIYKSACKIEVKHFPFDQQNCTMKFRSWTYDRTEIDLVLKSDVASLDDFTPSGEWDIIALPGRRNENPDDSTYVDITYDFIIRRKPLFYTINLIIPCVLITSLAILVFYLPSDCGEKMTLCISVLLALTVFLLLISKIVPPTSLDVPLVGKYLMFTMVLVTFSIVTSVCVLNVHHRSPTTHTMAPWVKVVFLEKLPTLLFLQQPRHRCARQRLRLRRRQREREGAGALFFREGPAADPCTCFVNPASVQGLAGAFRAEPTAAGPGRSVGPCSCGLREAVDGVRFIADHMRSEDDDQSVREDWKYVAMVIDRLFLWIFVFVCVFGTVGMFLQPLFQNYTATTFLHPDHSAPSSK

Point of comparison: `CCN(C)CCc1ccc(C)nc1`, Ki 240 nM. Against it:
- CCN(C)CCc1ccc(CCc2ccc(OC)cc2)nc1 — higher, > 10000 nM
- CCN(C)CCc1cncc(OC)c1 — 13-fold lower, 19 nM
- CCN(C)CCc1cnccc1N — higher, > 10000 nM
- CCN(C)CCc1cncc(Br)c1 — 1.5-fold higher, 360 nM
- CCN(C)CCc1ccc(Br)nc1 — 2.9-fold lower, 83 nM
- CCN(C)CCc1cncc(Cl)c1 — within 1.5-fold, 310 nM
- CCN(C)CCc1ccc(Cl)nc1 — 3.4-fold lower, 70 nM
- CCN(C)CCc1cnccc1OC — 7.7-fold higher, 1840 nM
- CCN(C)CCc1ccc(CCc2ccc(Cl)cc2)nc1 — higher, > 10000 nM
- CCN(C)CCc1cncc(C)c1 — 1.5-fold higher, 370 nM
